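Values below derive from 48-hour exposures of cells grown in 96-well plates, with endpoints linearly interpolated between the two concentrations bracketing the appropriate inhibition level. At the GI50, growth is halved.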 Calls of active or inactive are those of the source. Cut-off read from the data, not from the text of the source: active = GI50 up to about 1.1 µM and inactive = higher.
Columns and labels:
Experiment in all cases: inhibition of tumour cell growth, NCI panel, 48 h
A498 = test system: A498
A549 = test system: A549
BT-549 = test system: BT-549
CCRF-CEM = test system: CCRF-CEM
DU-145 = test system: DU-145
EKVX = test system: EKVX
M19-MEL = test system: M19-MEL
MCF7 = test system: MCF7
MDA-MB-231 = test system: MDA-MB-231
Malme-3M = test system: Malme-3M
NCI-H522 = test system: NCI-H522
OVCAR-3 = test system: OVCAR-3
OVCAR-5 = test system: OVCAR-5
PC-3 = test system: PC-3
RXF 393 = test system: RXF 393
SK-MEL-28 = test system: SK-MEL-28
SK-MEL-5 = test system: SK-MEL-5
SNB-75 = test system: SNB-75
SR = test system: SR
U-251 = test system: U-251

SMILES	GI50 (A498)	GI50 (A549)	GI50 (BT-549)	GI50 (CCRF-CEM)	GI50 (DU-145)	GI50 (EKVX)	GI50 (M19-MEL)	GI50 (MCF7)	GI50 (MDA-MB-231)	GI50 (Malme-3M)	GI50 (NCI-H522)	GI50 (OVCAR-3)	GI50 (OVCAR-5)	GI50 (PC-3)	GI50 (RXF 393)	GI50 (SK-MEL-28)	GI50 (SK-MEL-5)	GI50 (SNB-75)	GI50 (SR)	GI50 (U-251)
CC(C)Cn1cnc2c(Sc3c([N+](=O)[O-])ncn3C)nc(N)nc21	> 100 µM (inactive)	> 67.9 µM (inactive)	42.5 µM (inactive)	38.6 µM (inactive)	28.5 µM (inactive)	> 50.8 µM (inactive)	> 100 µM (inactive)	27.6 µM (inactive)	64.4 µM (inactive)	30.8 µM (inactive)	26.3 µM (inactive)	> 35 µM (inactive)	> 100 µM (inactive)	26.1 µM (inactive)	> 56.1 µM (inactive)	> 60.7 µM (inactive)	15.2 µM (inactive)	> 59.8 µM (inactive)	38.7 µM (inactive)	> 87.1 µM (inactive)
COc1c(O)c2c3c(cc(C)cc3c1C(C)C)OC2	–	> 100 µM (inactive)	–	> 100 µM (inactive)	–	> 100 µM (inactive)	> 100 µM (inactive)	–	–	> 100 µM (inactive)	> 100 µM (inactive)	> 100 µM (inactive)	> 100 µM (inactive)	–	> 100 µM (inactive)	> 100 µM (inactive)	> 100 µM (inactive)	> 100 µM (inactive)	> 100 µM (inactive)	> 100 µM (inactive)
O=C1[C@H](Cl)[C@H]2c3cc4ccccc4nc3Oc3ccccc3N12	42.9 µM (inactive)	33.5 µM (inactive)	–	61 µM (inactive)	–	81.8 µM (inactive)	34.8 µM (inactive)	–	–	49.4 µM (inactive)	24.3 µM (inactive)	48.4 µM (inactive)	67.3 µM (inactive)	–	–	33 µM (inactive)	30.9 µM (inactive)	1.4 µM (inactive)	20.9 µM (inactive)	30.9 µM (inactive)
COc1cc2c(cc1OC)[Se]c1cc(OC)c(OC)cc1[Se]2	> 10 µM (inactive)	> 10 µM (inactive)	–	> 10 µM (inactive)	–	> 10 µM (inactive)	> 10 µM (inactive)	–	–	> 10 µM (inactive)	8.75 µM (inactive)	> 10 µM (inactive)	> 10 µM (inactive)	–	15.1 µM (inactive)	> 10 µM (inactive)	> 10 µM (inactive)	6.84 µM (inactive)	4.74 µM (inactive)	> 10 µM (inactive)
CC1=C(c2cc(C(=O)Nc3ccc(Cl)c(Cl)c3)nc(N)n2)Sc2ccccc2N1	> 100 µM (inactive)	> 100 µM (inactive)	–	> 100 µM (inactive)	–	98.6 µM (inactive)	> 100 µM (inactive)	–	–	> 100 µM (inactive)	> 100 µM (inactive)	> 100 µM (inactive)	> 100 µM (inactive)	–	89.7 µM (inactive)	> 100 µM (inactive)	> 100 µM (inactive)	> 100 µM (inactive)	> 100 µM (inactive)	> 100 µM (inactive)
COc1cc2c(c(OC)c1OC)-c1ccc(SC)c(=O)cc1C(CC(=O)Oc1ccc(F)cc1)C2 (stereo unspecified)	0.0374 µM (active)	0.134 µM (active)	–	0.238 µM (active)	–	5.04 µM (inactive)	0.236 µM (active)	–	–	0.392 µM (active)	0.116 µM (active)	0.134 µM (active)	39.1 µM (inactive)	–	0.0365 µM (active)	0.48 µM (active)	0.193 µM (active)	0.234 µM (active)	0.0466 µM (active)	0.159 µM (active)
Cc1cc(CS(=O)(=O)/C=C/c2ccccc2[N+](=O)[O-])c(CS(=O)(=O)/C=C/c2ccccc2[N+](=O)[O-])cc1C	26.5 µM (inactive)	57.7 µM (inactive)	7.41 µM (inactive)	21.5 µM (inactive)	56.2 µM (inactive)	29.9 µM (inactive)	> 100 µM (inactive)	8.13 µM (inactive)	16.4 µM (inactive)	28 µM (inactive)	23.7 µM (inactive)	49.1 µM (inactive)	> 57.1 µM (inactive)	42.4 µM (inactive)	10.3 µM (inactive)	68.7 µM (inactive)	37.2 µM (inactive)	5.27 µM (inactive)	13.7 µM (inactive)	19.6 µM (inactive)
O=C(O)c1c(-c2cccc3ccccc23)sc(-c2cccc3ccccc23)c1C(=O)O	–	> 100 µM (inactive)	–	22.1 µM (inactive)	–	90.8 µM (inactive)	> 100 µM (inactive)	–	–	> 100 µM (inactive)	74.8 µM (inactive)	63.8 µM (inactive)	> 100 µM (inactive)	–	> 100 µM (inactive)	> 100 µM (inactive)	> 100 µM (inactive)	> 100 µM (inactive)	47.9 µM (inactive)	> 100 µM (inactive)
O=C1C2CCN(CC2)C1CN1CCOCC1 (stereo unspecified)	16.8 µM (inactive)	19.7 µM (inactive)	2.28 µM (inactive)	6.98 µM (inactive)	6.47 µM (inactive)	17.8 µM (inactive)	13.4 µM (inactive)	2.9 µM (inactive)	24.7 µM (inactive)	1.8 µM (inactive)	0.689 µM (active)	2.14 µM (inactive)	5.53 µM (inactive)	20 µM (inactive)	2.25 µM (inactive)	3.79 µM (inactive)	17.1 µM (inactive)	17 µM (inactive)	6.1 µM (inactive)	11 µM (inactive)
CC1=C(O)C(=O)C2C(=O)C1C1Cc3ccccc3C21 (stereo unspecified)	> 100 µM (inactive)	> 100 µM (inactive)	–	> 100 µM (inactive)	–	> 100 µM (inactive)	> 100 µM (inactive)	–	–	> 100 µM (inactive)	> 100 µM (inactive)	> 100 µM (inactive)	> 100 µM (inactive)	–	> 100 µM (inactive)	> 100 µM (inactive)	> 100 µM (inactive)	60.5 µM (inactive)	> 100 µM (inactive)	> 100 µM (inactive)
O=[N+]([O-])[C@@H]1C2C=CC(C2)[C@H]1Cl (stereo partly specified)	> 100 µM (inactive)	> 100 µM (inactive)	–	> 100 µM (inactive)	–	> 100 µM (inactive)	> 100 µM (inactive)	–	–	> 100 µM (inactive)	> 100 µM (inactive)	> 100 µM (inactive)	> 100 µM (inactive)	–	> 100 µM (inactive)	> 100 µM (inactive)	> 100 µM (inactive)	> 100 µM (inactive)	> 100 µM (inactive)	> 100 µM (inactive)
COc1nc(NC2OCC(OC(C)=O)C(OC(C)=O)C2OC(C)=O)c(-c2csc(N)n2)c(=O)n1C (stereo unspecified)	> 100 µM (inactive)	> 100 µM (inactive)	–	> 100 µM (inactive)	–	–	> 100 µM (inactive)	–	–	> 100 µM (inactive)	> 100 µM (inactive)	> 100 µM (inactive)	> 100 µM (inactive)	–	–	> 100 µM (inactive)	> 100 µM (inactive)	> 100 µM (inactive)	> 100 µM (inactive)	> 100 µM (inactive)
CC1=CC(=O)c2c(C=O)c(O)c(O)c(C(C)C)c2C1=O	24.4 µM (inactive)	–	–	14.7 µM (inactive)	–	–	37.9 µM (inactive)	–	–	22.9 µM (inactive)	12.4 µM (inactive)	–	35.5 µM (inactive)	–	14 µM (inactive)	34 µM (inactive)	0.494 µM (active)	40.7 µM (inactive)	22.8 µM (inactive)	19.8 µM (inactive)
Cc1cccc(C)c1NC(=O)CCCC(=O)C(C#N)c1ccccc1 (stereo unspecified)	> 10 µM (inactive)	> 10 µM (inactive)	–	> 100 µM (inactive)	–	> 10 µM (inactive)	> 100 µM (inactive)	–	–	–	> 100 µM (inactive)	> 10 µM (inactive)	> 10 µM (inactive)	–	> 100 µM (inactive)	> 100 µM (inactive)	> 100 µM (inactive)	> 100 µM (inactive)	> 100 µM (inactive)	> 10 µM (inactive)
